Laboratory results taken from patent publication US12508280B2, “Formulations for improving gut health” (DSM IP ASSETS B.V., priority 2018, dated 2025).
Counter-ions that a name gives are not always drawn.

Assays:
[1] = system: colonic microbiota (fecal inoculum of two healthy adults); experiment: 16S-targeted Illumina sequencing with flow cytometry, taxa abundance (second set); type: cell-based, human; conditions: 24 h fermentation
Protocol: (§1) In a second set of in vitro experiments, at the start of the short-term colonic incubations, the test ingredients were added to nutritional medium containing basal nutrients present in the colon (e.g. host-derived glycans such as mucin). Three doses were tested per product. The nutritional medium used for this particular project was again supplemented with NaCl, MgSO4, CaCl2, hemin and bile salts, and with carbon sources glucose, starch and cellobiose. A blank, containing the same nutritional medium as that used for the product incubations, but without product addition, was included for each donor. In doing so, an assessment can be made of the background activity of the bacterial community, which results from fermentation of compounds in the nutritional medium. As a source of the colonic microbiota a fecal inoculum of two healthy adults was added. Incubations were performed for 48 h at 37′C, under shaking (90 rpm) and anaerobic conditions and protected from light. […] For the second set of in vitro experiments, two techniques were combined according to Vandeputte et al.

[2] = system: colonic microbiota (fecal inoculum of two healthy adults); experiment: Microbiome diversity, alpha and beta (second set); type: cell-based, human
Protocol: as §1

| Compound | Akkermansiaceae relative abundance ([1]; 0.2× dose, donor D) | Faecalibacterium prausnitzii relative abundance ([1]; 0.2× dose, donor D) | Erysipelotrichaceae relative abundance ([1]; 1× dose, donor C) | Bifidobacteriaceae relative abundance ([1]; 1× dose, donor D) | Faecalibacterium prausnitzii relative abundance ([1]; 1× dose, donor D) | Bifidobacteriaceae relative abundance ([1]; 5× dose, donor D) | Faecalibacterium prausnitzii relative abundance ([1]; 5× dose, donor D) | alpha-diversity (Shannon diversity index) ([2]; 5× dose, donor D) | beta-diversity (Bray-Curtis distance to control) ([2]; 5× dose, donor D) | Erysipelotrichaceae relative abundance ([1]; 5× dose, donor C) | beta-diversity (Bray-Curtis distance to control) ([2]; 0.2× dose, donor D) | alpha-diversity (Shannon diversity index) ([2]; 1× dose, donor C) | other results |
| --- | --- | --- | --- | --- | --- | --- | --- | --- | --- | --- | --- | --- | --- |
| O=C(O)CCCC[C@@H]1SC[C@@H]2NC(=O)N[C@@H]21 [biotin, D-Biotin] | increase Akkermansiaceae relative abundance | increase Faecalibacterium prausnitzii relative abundance | increase Erysipelotrichaceae relative abundance | increase Bifidobacteriaceae relative abundance | increase Faecalibacterium prausnitzii relative abundance | increase Bifidobacteriaceae relative abundance | increase Faecalibacterium prausnitzii relative abundance | increases alpha-diversity | increases beta-diversity | – | – | – | Erysipelotrichaceae relative abundance ([1]; 0.2× dose, donor C): increase Erysipelotrichaceae relative abundance; Bifidobacteriaceae relative abundance ([1]; 0.2× dose, donor D): increase Bifidobacteriaceae relative abundance; Barnesiellaceae relative abundance ([1]; 1× dose, donor D): increase Barnesiellaceae relative abundance; alpha-diversity (Shannon diversity index) ([2]; 0.2× dose, both donors): increases alpha-diversity; beta-diversity (Bray-Curtis distance to control) ([2]; 1× dose, both donors): increases beta-diversity |
| NC(=O)c1cccnc1 [niacinamide, Niacinamide] | – | – | increase Erysipelotrichaceae relative abundance | – | – | – | – | – | increases beta-diversity | increase Erysipelotrichaceae relative abundance | increases beta-diversity | increases alpha-diversity | Akkermansiaceae relative abundance ([1]; 0.2× dose, donor C): increase Akkermansiaceae relative abundance |
| Cc1ncc(CO)c(CO)c1O.Cl [pyridoxine, Pyridoxine Hydrochloride] | increase Akkermansiaceae relative abundance | increase Faecalibacterium prausnitzii relative abundance | increase Erysipelotrichaceae relative abundance | increase Bifidobacteriaceae relative abundance | increase Faecalibacterium prausnitzii relative abundance | increase Bifidobacteriaceae relative abundance | increase Faecalibacterium prausnitzii relative abundance | increases alpha-diversity | increases beta-diversity | – | increases beta-diversity | – | Akkermansiaceae relative abundance ([1]; 1× dose, donor D): increase Akkermansiaceae relative abundance; Prevotellaceae relative abundance ([1]; 5× dose, donor C): increase Prevotellaceae relative abundance; Akkermansiaceae relative abundance ([1]; 5× dose, donor D): increase Akkermansiaceae relative abundance; Veillonellaceae relative abundance ([1]; 5× dose, donor D): increase Veillonellaceae relative abundance; beta-diversity (Bray-Curtis distance to control) ([2]; 1× dose, donor D): increases beta-diversity |
| Cc1ncc(C[n+]2csc(CCO)c2C)c(N)n1 [thiamine, Thiamine Hydrochloride] | – | – | – | – | – | – | – | – | increases beta-diversity | increase Erysipelotrichaceae relative abundance | – | increases alpha-diversity | Akkermansiaceae relative abundance ([1]; 1× dose, donor C): increase Akkermansiaceae relative abundance; alpha-diversity (Shannon diversity index) ([2]; 0.2× dose, donor C): increases alpha-diversity; beta-diversity (Bray-Curtis distance to control) ([2]; 1× dose, donor C): increases beta-diversity |
